Assays:
[1] = test system: BV2 (mouse microglia) cell line; assay: pHrodo-myelin phagocytosis/cell viability high content imaging assay: phagocytosis signal; assay type: cell-based
Method: (§1) It is important to note that stressed cells, such as those that are dying, are prone to show an increase in phagocytosis. […] MerTK promotes phagocytosis and thus MerTK inhibition is proposed to lead to inhibition of phagocytosis.[47]
(§2) phagocytosis and cell viability simultaneously. High content imaging is performed with the
(§3) (approximately 22 hours after pHrodo-myelin addition). Three measurements are extracted
(§4) intensity increase (early apoptosis) and decrease (later apoptosis), respectively. These
and 3). […]

[2] = test system: HMC3 (human microglia) cell line; assay: as above; assay type: cell-based
Method: as §1, §2, §3, §4
and 3). […]

[3] = test system: BV2 (mouse microglia) cell line; assay: pHrodo-myelin phagocytosis/cell viability high content imaging assay: viability (cell count, nuclear area, nuclear intensity); settings: 48 hours treatment
Method: (§5) All AD Informer Set compounds were tested in two immortalized microglial cell lines, murine (BV2), and human (HMC3), in a high‐content imaging assay in duplicate by the Chu lab. Experimental details and all data can be found as supporting information files.
(§6) The role of microglia in AD has been well documented and was thus chosen as a cell type in which to profile the AD Informer Set.[43], [44], [45] As an example, neuroinflammation, as detected by the presence of activated complement proteins, interleukins, cytokines, and chemokines in microglia and astrocytes, is increased early in AD and is considered pathogenic due to its chronic nature.[33], [34] Cytotoxic effects can be assessed by considering multiple parameters.
(§7) Microglial viability and phagocytosis studies: The pHrodo-myelin phagocytosis/cell viability assay, modified based on a published method, was run with immortalized BV2 (mouse microglia) and HMC3 (human microglia) cell lines in the Chu lab at IUSM. The 384-well plate high content analysis assay with BV2 and HMC3 microglial cell lines is used to quantify both phagocytosis and cell viability simultaneously. High content imaging is performed with the ArrayScan automatic imaging system and imaging analysis done with the software on the system. After allowing cells to adhere overnight, they are treated with compounds for total 48 hours including final 20 hours seeded with pHrodo-myelin (labeled phagocytosis ligand, purified […]
(§8) (approximately 22 hours after pHrodo-myelin addition). Three measurements are extracted from the assay: 1) phagocytosis signal by mean total phagocytosis spot intensity per cell, 2) total cell counts per well as the main measurement of cell viability, and 3) mean average nuclear intensity per cell as profiling of cell health since apoptotic cells showing nuclear intensity increase (early apoptosis) and decrease (later apoptosis), respectively. These measurements allow for evaluation of compound-induced phagocytosis (1) and cytotoxicity (2 and 3). Assays were carried out at a single concentration (10 μM). Idelalisib (10 μM) and cytochalasin-D (4 μM) were used as positive controls in the assay. All data, which was an average of 2 data points, was normalized to untreated wells and reported as % control, which is included in the Supporting Information both as a raw data file and summarized in the compound/gene-annotation file.

[4] = test system: HMC3 (human microglia) cell line; assay: as above; settings: 48 hours treatment
Method: as §5, §6, §7, §8

[5] = BV2 cells, 10 uM compound, 48 hours treatment, pHrodo-myelin final 20 hours
[6] = HMC3 cells, 10 uM compound, 48 hours treatment, pHrodo-myelin final 20 hours
[7] = BV2, compound 10 uM, pHrodo-myelin
[8] = HMC3, compound 10 uM, pHrodo-myelin

Structure (SMILES) | 4. Phagocytosis (% control) [1, 5] [% control] | 4. Phagocytosis (% control) [2, 6] [% control] | 1. Cell count (% control) ([3]; BV2 cells, 10 uM compound) | 2. Nuclear Area (% Control) ([3]; BV2 cells, 10 uM compound) | 3. Nuclear DNA Intensity (% control) ([3]; BV2 cells, 10 uM compound) | 1. Cell count (% control) ([4]; HMC3 cells, 10 uM compound) | 2. Nuclear Area (% Control) ([4]; HMC3 cells, 10 uM compound) | 3. Nuclear DNA Intensity (% control) ([4]; HMC3 cells, 10 uM compound) | 4. Phagocytosis (% control) [1, 7] [% control] | 4. Phagocytosis (% control) [2, 8] [% control] | 1. Cell count (% control) ([3]; BV2, compound 10 uM) | 2. Nuclear Area (% Control) ([3]; BV2, compound 10 uM) | 3. Nuclear DNA Intensity (% control) ([3]; BV2, compound 10 uM) | 1. Cell count (% control) ([4]; HMC3, compound 10 uM) | 2. Nuclear Area (% Control) ([4]; HMC3, compound 10 uM) | 3. Nuclear DNA Intensity (% control) ([4]; HMC3, compound 10 uM)
C[C@@H]1O[C@@H](O[C@H]2[C@H](Oc3cc(O)c4c(c3)O[C@H](c3ccc(O)cc3)CC4=O)O[C@H](CO)[C@@H](O)[C@@H]2O)[C@H](O)[C@H](O)[C@H]1O [UNC10242153A] | 167.6 | 65.7 | 113.5 | 104.9 | 98.8 | 139.8 | 102.9 | 93.8 |  |  |  |  |  |  |  | 
O=C(NC1CC1)C(=O)C(Cc1ccccc1)NC(=O)[C@H]1CCC(=O)N1Cc1ccccc1 (stereo partly shown) [UNC10302676A] | 108.4 | 95.9 | 127.5 | 105.0 | 102.8 | 123.8 | 98.7 | 104.1 |  |  |  |  |  |  |  | 
Cc1cc(Nc2nc(N[C@@H](C)c3ncc(F)cn3)ncc2Cl)n[nH]1 [UNC10302859A] |  |  |  |  |  |  |  |  | 153.2 | 95.5 | 53.2 | 109.7 | 105.5 | 84.7 | 121.3 | 92.5
COc1ccc2nc([S+]([O-])Cc3ncc(C)c(OC)c3C)nc-2[nH]1 (stereo not shown) [UNC10303106A] | 116.6 | 91.6 | 113.2 | 104.8 | 103.4 | 100.3 | 105.8 | 97.2 |  |  |  |  |  |  |  | 
O=C(NC1CCNCC1)c1[nH]ncc1NC(=O)c1c(Cl)cccc1Cl [UNC10302839A] |  |  |  |  |  |  |  |  | 18.2 | 183.7 | 4.8 | 121.7 | 82.5 | 70.4 | 131.0 | 97.4
O=C(O)c1cc2nc(-c3ccc(Cl)cc3)cc(C(F)(F)F)n2n1 [UNC10302881A] | 163.1 | 94.6 | 116.3 | 105.9 | 97.1 | 123.0 | 99.8 | 93.1 |  |  |  |  |  |  |  | 
NC(=O)[C@@H]1CC[C@H](c2ccc(OCc3ccccc3F)cc2)N1 [UNC10303186A] |  |  |  |  |  |  |  |  | 194.5 | 105.3 | 138.2 | 103.3 | 100.1 | 128.0 | 102.6 | 95.0
C[C@H]1Oc2cc(cnc2N)-c2c(nn(C)c2C#N)CN(C)C(=O)c2ccc(F)cc21 [UNC10244898A] | 200.3 | 37.8 | 117.2 | 102.7 | 110.1 | 127.2 | 110.3 | 89.2 |  |  |  |  |  |  |  | 
